From patent US8673587B2, “Methods for identifying allosteric and other novel acyl-coenzyme A:cholesterol acyltransferase inhibitors” (Trustees of Dartmouth College, priority 2010, dated 2014)

Legend:
[1] = target: T1, histidine-tagged recombinant human ACAT1 (Homo sapiens, UniProt P35610, M1L); assay: Steroid (pregnenolone/DHEA/E2) esterification in mixed micelles, ACAT1 as enzyme source; format: biochemical; settings: for ACAT1 substrate activity: 1 μM [3H]-steroid
T1 construct: hACAT-1 cDNA (nucleotide residues 1397-3046, a total of 550 amino acids); made in house; partially purified on a nickel column
T1 sequence (P35610 1-550 M1L): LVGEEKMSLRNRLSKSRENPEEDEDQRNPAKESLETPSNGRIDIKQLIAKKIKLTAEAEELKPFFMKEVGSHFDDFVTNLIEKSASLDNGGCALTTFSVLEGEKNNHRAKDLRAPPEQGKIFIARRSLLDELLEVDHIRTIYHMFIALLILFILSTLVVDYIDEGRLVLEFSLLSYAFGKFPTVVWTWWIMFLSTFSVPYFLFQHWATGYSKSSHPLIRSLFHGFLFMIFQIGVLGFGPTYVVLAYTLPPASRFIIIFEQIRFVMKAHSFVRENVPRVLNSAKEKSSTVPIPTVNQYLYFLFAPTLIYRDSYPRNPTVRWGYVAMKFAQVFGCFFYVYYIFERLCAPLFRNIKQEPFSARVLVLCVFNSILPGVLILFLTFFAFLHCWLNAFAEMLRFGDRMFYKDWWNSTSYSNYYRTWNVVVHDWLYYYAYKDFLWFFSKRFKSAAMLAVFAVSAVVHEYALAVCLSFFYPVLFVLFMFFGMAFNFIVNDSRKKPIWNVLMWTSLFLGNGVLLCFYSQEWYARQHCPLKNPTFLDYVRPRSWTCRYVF
From the text: (§1) The method of the present invention was developed in experiments using a mixed micelle enzyme assay system. […] A candidate ACAT inhibitor is an allosteric inhibitor if it is shown in the method of the present invention to inhibit cholesterol-dependent pregnenolone esterification but not to inhibit the basal pregnenolone esterification when cholesterol is absent in the assay mixture. […] In the assay system of the present invention, the source of ACAT was histidine-tagged recombinant human ACAT1 or human ACAT2, stably expressed in Chinese hamster ovary (CHO) cells that lack endogenous ACAT activity. However, one of skill in the art could employ other suitable mammalian cell systems as needed. The enzyme preparations used in the present method were partially purified through the use of nickel column chromatography, as described previously (Liu et al. 2005. Biochem. J. 391:389-397), using cells that stably expressing histidine-tagged recombinant human ACAT1 or human ACAT2 as the enzyme source.
(§2) In developing the method of the present invention, a series of experiments was performed. Pregnenolone is one compound that contains the classical A, B, C, D steroid rings as well as a 3 beta-OH moiety. Based on its structure, pregnenolone may be an ACAT substrate. However, this possibility had not previously been tested experimentally. In the present invention, the activity of pregnenolone was tested by using radiolabeled pregnenolone ([^3H]-pregnenolone) in a mixed micelle enzyme assay mixture that contained the detergent taurocholate (or CHAPS), phosphatidylcholine, and oleyl-coenzyme A bound to bovine serum albumin (BSA). The enzyme used was histidine-tagged human ACAT1 or human ACAT2. The esterification of pregnenolone (i.e., formation of pregnenolone oleate) was monitored by performing lipid extraction to isolate [^3H]-pregnenolone oleate and [^3H]-pregnenolone. [^3H]-pregnenolone oleate was then separated from [^3H]-pregnenolone by using conventional thin-layer chromatography. Levels of [^3H]-pregnenolone oleate formed was measured using a scintillation counter. […] Thus, using ACAT1 as the enzyme source, the esterification of DHEA was examined (FIG. 1C).
A pregnenolone substrate saturation curve was then constructed, with or without addition of cholesterol to the assay mixture, using ACAT1 as the enzyme source (FIG. 2A). […] Then, a DHEA substrate saturation curve was constructed, with cholesterol present.
Further experiments were performed to examine the effect of adding various non-oxysterols, at a concentration of 0.32 mM, on pregnenolone esterification in vitro, with ACAT1 as the enzyme source.
(§3) To assay the enzyme, the pregnenolone/detergent/PC micelles and the cholesterol/detergent/PC micelles were prepared individually as follows: the radiolabeled pregnenolone/PC mixture or the cholesterol/PC mixture was prepared as described previously (Shi et al. 1989. Biochim. Biophys. Acta 982:187-195) and lyophilized to remove residual organic solvents. After lyophilization, the detergent sodium taurocholate (or other detergent such as CHAPS) in Buffer A was added to reach a final concentration of 10 mg/ml. The mixture was purged with nitrogen, followed by sonication until this mixture was clear. The pregnenolone/PC micelles were mixed with the cholesterol/PC micelles such that the cholesterol concentration is at 0 mM or at 0.32 mM, and the radioactive pregnenolone concentration is at 1 μM (specific activity 20 Ci/mmol).

[2] = target: T2, ACAT1 (Homo sapiens, UniProt P35610, M1L); assay: Cholesterol esterification in vitro ([3H]-oleoyl-CoA/BSA labeled substrate), cholesterol substrate saturation curve; format: biochemical; settings: pregnenolone added at 5 μM
T2 construct: hACAT-1 cDNA (nucleotide residues 1397-3046, a total of 550 amino acids); made in house; partially purified on a nickel column
T2 sequence (P35610 1-550 M1L): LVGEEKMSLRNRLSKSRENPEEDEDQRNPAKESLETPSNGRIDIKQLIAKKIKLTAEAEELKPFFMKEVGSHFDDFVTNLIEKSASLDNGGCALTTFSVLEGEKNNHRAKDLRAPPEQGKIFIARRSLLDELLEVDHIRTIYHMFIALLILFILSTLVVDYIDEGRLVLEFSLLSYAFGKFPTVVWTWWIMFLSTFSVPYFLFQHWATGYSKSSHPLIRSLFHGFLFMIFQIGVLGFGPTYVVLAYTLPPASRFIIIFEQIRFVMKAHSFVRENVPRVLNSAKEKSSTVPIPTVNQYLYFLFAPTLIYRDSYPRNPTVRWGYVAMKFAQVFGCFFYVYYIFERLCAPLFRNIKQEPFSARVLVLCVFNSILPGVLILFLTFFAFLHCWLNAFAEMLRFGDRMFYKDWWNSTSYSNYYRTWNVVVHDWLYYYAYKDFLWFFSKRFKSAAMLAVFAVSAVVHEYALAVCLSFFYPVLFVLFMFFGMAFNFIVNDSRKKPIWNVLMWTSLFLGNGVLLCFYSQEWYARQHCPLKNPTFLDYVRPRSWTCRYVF
From the text: (§6) ACAT1 was the enzyme source. [^3H]-oleoyl-CoA/BSA was the labeled substrate.

[3] = target: T3, histidine-tagged recombinant human ACAT2 (Homo sapiens, UniProt O75908); assay: Pregnenolone esterification in mixed micelles, ACAT2 as enzyme source; format: biochemical; settings: 1 μM [3H]-pregnenolone
T3 construct: made in house; partially purified on a nickel column
T3 sequence (O75908 1-522): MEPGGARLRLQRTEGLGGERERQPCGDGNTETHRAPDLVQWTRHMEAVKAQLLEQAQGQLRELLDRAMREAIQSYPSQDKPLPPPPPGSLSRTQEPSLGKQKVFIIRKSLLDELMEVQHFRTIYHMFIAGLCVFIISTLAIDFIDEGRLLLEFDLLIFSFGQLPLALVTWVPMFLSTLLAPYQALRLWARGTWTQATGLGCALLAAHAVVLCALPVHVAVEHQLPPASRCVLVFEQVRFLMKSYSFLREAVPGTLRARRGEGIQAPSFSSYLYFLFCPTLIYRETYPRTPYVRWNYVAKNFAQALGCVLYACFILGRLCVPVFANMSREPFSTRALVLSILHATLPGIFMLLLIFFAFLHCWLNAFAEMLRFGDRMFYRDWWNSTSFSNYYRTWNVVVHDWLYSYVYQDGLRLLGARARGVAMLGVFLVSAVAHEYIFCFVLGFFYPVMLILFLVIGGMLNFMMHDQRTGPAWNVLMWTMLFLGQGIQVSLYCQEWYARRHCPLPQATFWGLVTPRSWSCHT
From the text: as §1, §2, §3

[4] = substrate: CC(C)CCC[C@@H](C)[C@H]1CC[C@H]2[C@@H]3CC=C4C[C@@H](O)CC[C@]4(C)[C@H]3CC[C@]12C; assay: Cholesterol esterification in vitro ([3H]-oleoyl-CoA/BSA labeled substrate), cholesterol substrate saturation curve; format: biochemical, human; settings: other: ACAT1
From the text: as §6

[5] = substrate: CCCCCCCCCCCCCCCCCC(=O)SCCNC(=O)CCNC(=O)[C@H](O)C(C)(C)COP(=O)(O)OP(=O)(O)OC[C@H]1O[C@@H](n2cnc3c(N)ncnc32)[C@H](O)[C@@H]1OP(=O)(O)O; assay: Steady-state enzyme kinetics with fatty acyl-CoA as variable substrate, purified HisACAT1/FLAG; format: biochemical, human; settings: other: constant, saturating cholesterol in CHAPS/PC mixed micelles
Procedure: (§4) To monitor enzyme activity during enzyme purification, the enzyme solubilized in the detergent CHAPS was assayed in preformed taurocholate/cholesterol/phosphatidylcholine (PC) mixed micelles as described previously (Chang, C. C. et al. 1998. J. Biol. Chem. 273:35132-35141), with a final concentration of taurocholate at 9.3 mM, PC at 11.2 mM, and cholesterol at 1.6 mM. The amount of mixed micelle solution was used to dilute the detergent presented in the enzyme preparation, so the final CHAPS/PC molar ratio was less than 0.4. The fatty acyl-CoA substrate saturation curves and cholesterol substrate saturation curves were performed under the same conditions as described previously (Chang, C. C. et al. 1998. supra).
(§5) Prior to conducting binding experiments, steady-state enzyme kinetic experiments were conducted using purified HisACAT1/FLAG as the enzyme source and either oleoyl- (18:1) CoA or stearoyl- (18:0) CoA as the variable substrate, at a constant, saturating level of cholesterol in the CHAPS/PC mixed micelles.

[6] = substrate: CCCCCCCC/C=C\CCCCCCCC(=O)SCCNC(=O)CCNC(=O)[C@H](O)C(C)(C)COP(=O)(O)OP(=O)(O)OC[C@H]1O[C@@H](n2cnc3c(N)ncnc32)[C@H](O)[C@@H]1OP(=O)(O)O; assay: as above; format: biochemical, human; settings: other: constant, saturating cholesterol in CHAPS/PC mixed micelles
Procedure: as §4, §5

[7] = presence of excess cholesterol (0.32 mM)

CC(=O)[C@H]1CC[C@H]2[C@@H]3CC=C4C[C@@H](O)CC[C@]4(C)[C@H]3CC[C@]12C [pregnenolone]
estimated Km, fold lower than that of cholesterol ([1]; ACAT1, cholesterol present): 600 fold | ACAT1 substrate activity ([1]; absence of cholesterol): very poor substrate | ACAT1 substrate activity [1, 7]: much better substrate | Km ([1]; with cholesterol present in vitro (0.32 mM), read-out: apparent Km as ACAT1 substrate): ~1.2 µM | Km as ACAT1 substrate ([1]; without cholesterol present in vitro): too high to be measurable | inhibition of cholesterol esterification [2]: 10-15% | ACAT2 substrate activity ([3]; absence of cholesterol): very poor substrate | ACAT2 substrate activity [3, 7]: much better substrate

B1: ACAT1 (Homo sapiens; M1L) (protein)
chain: LVGEEKMSLRNRLSKSRENPEEDEDQRNPAKESLETPSNGRIDIKQLIAKKIKLTAEAEELKPFFMKEVGSHFDDFVTNLIEKSASLDNGGCALTTFSVLEGEKNNHRAKDLRAPPEQGKIFIARRSLLDELLEVDHIRTIYHMFIALLILFILSTLVVDYIDEGRLVLEFSLLSYAFGKFPTVVWTWWIMFLSTFSVPYFLFQHWATGYSKSSHPLIRSLFHGFLFMIFQIGVLGFGPTYVVLAYTLPPASRFIIIFEQIRFVMKAHSFVRENVPRVLNSAKEKSSTVPIPTVNQYLYFLFAPTLIYRDSYPRNPTVRWGYVAMKFAQVFGCFFYVYYIFERLCAPLFRNIKQEPFSARVLVLCVFNSILPGVLILFLTFFAFLHCWLNAFAEMLRFGDRMFYKDWWNSTSYSNYYRTWNVVVHDWLYYYAYKDFLWFFSKRFKSAAMLAVFAVSAVVHEYALAVCLSFFYPVLFVLFMFFGMAFNFIVNDSRKKPIWNVLMWTSLFLGNGVLLCFYSQEWYARQHCPLKNPTFLDYVRPRSWTCRYVF
notes: hACAT-1 cDNA (nucleotide residues 1397-3046, a total of 550 amino acids); made in house; partially purified on a nickel column
Km [4]: 300 µM

B2: HisACAT1/FLAG (recombinant hACAT1) (Homo sapiens; M1L) (protein)
chain: LVGEEKMSLRNRLSKSRENPEEDEDQRNPAKESLETPSNGRIDIKQLIAKKIKLTAEAEELKPFFMKEVGSHFDDFVTNLIEKSASLDNGGCALTTFSVLEGEKNNHRAKDLRAPPEQGKIFIARRSLLDELLEVDHIRTIYHMFIALLILFILSTLVVDYIDEGRLVLEFSLLSYAFGKFPTVVWTWWIMFLSTFSVPYFLFQHWATGYSKSSHPLIRSLFHGFLFMIFQIGVLGFGPTYVVLAYTLPPASRFIIIFEQIRFVMKAHSFVRENVPRVLNSAKEKSSTVPIPTVNQYLYFLFAPTLIYRDSYPRNPTVRWGYVAMKFAQVFGCFFYVYYIFERLCAPLFRNIKQEPFSARVLVLCVFNSILPGVLILFLTFFAFLHCWLNAFAEMLRFGDRMFYKDWWNSTSYSNYYRTWNVVVHDWLYYYAYKDFLWFFSKRFKSAAMLAVFAVSAVVHEYALAVCLSFFYPVLFVLFMFFGMAFNFIVNDSRKKPIWNVLMWTSLFLGNGVLLCFYSQEWYARQHCPLKNPTFLDYVRPRSWTCRYVF
notes: hACAT1 contains 550 amino acids; made in house
Km [5]: 6.4 µM | Km [6]: 1.3 µM
